Assay results reported in PMC6669322, “Small Molecule Binding to Alzheimer Risk Factor CD33 Promotes Aβ Phagocytosis” (iScience, 2019).
Values joined by “and” are separate entries in the source; they are usually repeats but may differ in a detail not shown here. Identical values can stand only once.

Key:
[1] = target: CD33 R119A (Homo sapiens, UniProt P20138, R119A); experiment: SNAP-tag homogeneous time-resolved fluorescence binding assay, CD33 R119A; set-up: human CD33 ORF (NM_001772.3), lacking its signal peptide; expressed in transfected cells; host or cells: HEK293T, transient, pT8-SNAP vector; settings: binding affinity, R119A vs WT
Protocol: Figure 3 P22 Binding to CD33 Wild-Type and Mutants (A) An example of affinity analysis for 1–243 μM (3-fold dilutions) of P22 binding to immobilized CD33^C36S. Data obtained in duplicate using single-cycle analysis and fit to a steady-state binding model to determine the equilibrium binding constant. (B) An example of affinity analysis of P22 binding to immobilized CD33 wild-type (WT) as per example in (A). (C) Sensorgram data for 0.01–9 μM (3-fold dilutions) of CD33^C36S binding to immobilized P22. Data obtained in triplicate using single concentration cycles and fit to a 1:1 binding model for kinetic analysis. […]
We then used our structural data to design mutations of key residues interacting with P22 to assess which interactions were the most important for binding affinity. The residues were mutated into alanine, and the effect of these mutations on P22 binding affinity was assessed using a SNAP-tag homogeneous time-resolved fluorescence binding assay (see Transparent Methods and Figures 3E–3G). […]
HEK293T cells were cultured in DMEM (ThermoFisher Scientific # 11965092) containing 10% FBS (Hyclone # SH30070.03) and 1% Penicillin-Streptomycin (ThermoFisher Scientific # 15140122) and transfected using Fugene HD (Promega # E2312) in 10 cm plates. […] The cells were counted, centrifuged and resuspended in PBS at a concentration of 1,000 cells/μL and 10 μL were plated into each well. […]

[2] = target: T1, CD33^C36S (Homo sapiens, UniProt P20138, C36S); experiment: surface plasmon resonance (SPR), CD33^C36S V-set domain; assay type: binding; settings: P22 as analyte, captured CD33^C36S; 1:1 steady state model
T1 construct: DNA encoding D18 to H143 of human CD33; octa-histidine tag with TEV protease cleavage site (N); made in house
Protocol: We next performed surface plasmon resonance (SPR) measurements on P22 binding to CD33 wild-type, and selected mutants, to obtain detailed kinetic data (see Transparent Methods). The CD33 V-set domain has a free cysteine residue (C36), which caused anomalous results in some of our SPR experiments due to disulfide-linked oligomers forming in solution.
Figure 3 P22 Binding to CD33 Wild-Type and Mutants (A) An example of affinity analysis for 1–243 μM (3-fold dilutions) of P22 binding to immobilized CD33^C36S. Data obtained in duplicate using single-cycle analysis and fit to a steady-state binding model to determine the equilibrium binding constant. (B) An example of affinity analysis of P22 binding to immobilized CD33 wild-type (WT) as per example in (A). (C) Sensorgram data for 0.01–9 μM (3-fold dilutions) of CD33^C36S binding to immobilized P22. Data obtained in triplicate using single concentration cycles and fit to a 1:1 binding model for kinetic analysis. (D) Sensorgram data for 0.03–9 μM (3-fold dilutions) CD33 WT binding to immobilized P22. Data obtained in triplicate using single concentration cycles and fit to a bivalent analyte model for kinetic analysis. Measurements in triplicate showing mean ± SD. […] Data presented are representative of three independent experiments performed in quadruplicate for each compound. […]

[3] = tested on: human CD33; set-up: method as in Rillahan et al., 2014; settings: in words; ref Rillahan et al., 2014; cited from earlier work

T1 sequence (P20138 18-143 C36S): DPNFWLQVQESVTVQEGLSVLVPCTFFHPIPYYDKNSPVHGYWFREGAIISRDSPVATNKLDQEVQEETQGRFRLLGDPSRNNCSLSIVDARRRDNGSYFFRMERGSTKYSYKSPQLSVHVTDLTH
CD33 R119A, sequence (P20138 18-364 R119A): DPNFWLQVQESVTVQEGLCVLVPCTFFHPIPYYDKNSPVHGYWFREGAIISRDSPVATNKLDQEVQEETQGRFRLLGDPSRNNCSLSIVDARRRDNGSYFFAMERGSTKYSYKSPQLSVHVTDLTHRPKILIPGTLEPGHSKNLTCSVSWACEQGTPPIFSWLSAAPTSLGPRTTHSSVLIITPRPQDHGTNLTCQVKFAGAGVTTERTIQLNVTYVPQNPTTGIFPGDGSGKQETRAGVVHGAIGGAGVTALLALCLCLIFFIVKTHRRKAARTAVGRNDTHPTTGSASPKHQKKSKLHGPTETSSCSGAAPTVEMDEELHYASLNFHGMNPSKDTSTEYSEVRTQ

- Fold-decrease compared to WT [1]: > 30 fold
- Kd [2]: 95 µM and 95.2 µM
Compound: Cc1cc(C(=O)NC[C@@H](O)[C@@H](O)[C@@H]2O[C@@](OC[C@H]3O[C@@H](O[C@H]4[C@H](O)[C@@H](O)[C@H](OCCN)O[C@@H]4CO)[C@H](O)[C@@H](O)[C@H]3O)(C(=O)O)C[C@H](O)[C@H]2NC(=O)Cn2cc(C3CCCCC3)nn2)cc(C)c1O [P22, β-D-Glucopyranoside, 2-aminoethyl O-[N-[2-(4-cyclohexyl-1H-1,2,3-triazol-1-yl)acetyl]-9-deoxy-9-[(4-hydroxy-3,5-dimethylbenzoyl)amino]-α-neuraminosyl] (2→6)-O-β-D-galactopyranosyl-(1→4)-]
- specificity for human CD33 over other human Siglecs [3]: high specificity
